Laboratory results as given in patent US4153692A, “Acylated imidazolyl-O,N-acetals, their pharmaceutically acceptable salts and metal complexes” (Bayer Aktiengesellschaft, priority 1976, dated 1979).
In brackets after ≈: the same amount, converted by molar mass.

What was measured:
[1] = system: Trichophyton mentagrophytes; assay: Antimycotic in vitro activity (series dilution test, MIC); format: cell-based; conditions: Sabouraud's milieu d'epreuve, 28° C., 24 to 96 hours, 5 × 10^4 germs/ml, read-out: MIC values in γ/ml of nutrient medium with Trichophyton mentagrophytes
Protocol: (§1) Antimycotic in vitro activity Description of the experiment The in vitro tests were carried out in a series dilution test using germ inocula with an average of 5 × 10^4 germs/ml of substrate. The nutrient medium used was a) for dermatophytes and molds: Sabouraud's milieu d'epreuve and b) for yeasts: meat extract/glucose broth. The incubation temperature was 28° C. and the incubation time was 24 to 96 hours.

[2] = system: Candida albicans; assay: as above; format: cell-based; conditions: meat extract/glucose broth, 28° C., 24 to 96 hours, 5 × 10^4 germs/ml, read-out: MIC values in γ/ml of nutrient medium with Candida albicans
Protocol: as §1

[3] = system: Penicillium commune; assay: as above; format: cell-based; conditions: Sabouraud's milieu d'epreuve, 28° C., 24 to 96 hours, 5 × 10^4 germs/ml, read-out: MIC values in γ/ml of nutrient medium with Penicillium commune
Protocol: as §1

[4] = system: Aspergillus niger; assay: as above; format: cell-based; conditions: Sabouraud's milieu d'epreuve, 28° C., 24 to 96 hours, 5 × 10^4 germs/ml, read-out: MIC values in γ/ml of nutrient medium with Aspergillus niger
Protocol: as §1

[5] = system: Microsporum felinum; assay: as above; format: cell-based; conditions: Sabouraud's milieu d'epreuve, 28° C., 24 to 96 hours, 5 × 10^4 germs/ml, read-out: MIC values in γ/ml of nutrient medium with Microsporum felinum
Protocol: as §1

[6] = system: Candida cells; assay: Antimycotic in vivo activity on candidosis in mice; parameters: species or system mice of the SPF-CF1 type; conditions: mice infected i.v. with Candida; 100 mg/kg orally one hour before and seven hours after infection; untreated survival about 5%
Protocol: antimycotic in vivo activity on candidosis in mice Description of the experiment Mice of the SPF-CF1 type were infected intravenously with 1-2 × 10^6 logarithmically-growing Candida cells, which were suspended in physiological sodium chloride solution. One hour before and seven hours after the infection the animals were treated orally with, in each case, 100 mg of the formulations per kg of body weight. Untreated animals died of the infection 3 to 6 days after infection. The survival rate on the 6th day after infection was about 5% in the case of the untreated control animals

Compound	MIC [1] [µg/mL]	MIC [2] [µg/mL]	MIC [3] [µg/mL]	MIC [4] [µg/mL]	MIC [5] [µg/mL]	Action (survivors on the 6th day after infection) [6]
CC(C)(C)c1ccc(OC(C(O)C(C)(C)C)n2ccnc2)cc1 (stereo not shown)	32 (≈ 101 µM)	64 (≈ 202 µM)	> 64	–	–	–
CC(C)(C)C(O)C(Oc1ccccc1)n1ccnc1 (stereo not shown)	32 (≈ 123 µM)	32 (≈ 123 µM)	> 64	> 64	> 64	–
CC(=O)OC(C(Oc1ccc(-c2ccccc2)cc1)n1ccnc1)C(C)(C)C (stereo not shown)	< 1	64 (≈ 169 µM)	8 (≈ 21.1 µM)	< 1	8 (≈ 21.1 µM)	–
CC(=O)OC(C(Oc1ccc(C2CCCCC2)cc1)n1ccnc1)C(C)(C)C (stereo not shown)	8 (≈ 20.8 µM)	64 (≈ 166 µM)	32 (≈ 83.2 µM)	–	–	–
CC(=O)OC(C(Oc1ccccc1)n1ccnc1)C(C)(C)C (stereo not shown)	–	–	–	–	–	++ (weak action = ≥ 40% survivors on the 6th day after infection)
CC(=O)OC(C(Oc1ccc(F)cc1)n1ccnc1)C(C)(C)C (stereo not shown)	–	–	–	–	–	+++ (action = ≥ 60% survivors on the 6th day after infection)
CC(C)(C)C(O)C(Oc1cccc(Cl)c1)n1ccnc1 (stereo not shown) [drawing 4]	64 (≈ 217 µM)	32 (≈ 109 µM)	> 64	–	–	–
CC(=O)OC(C(Oc1ccc(Cl)cc1)n1ccnc1)C(C)(C)C (stereo not shown) [drawing 7]	4 (≈ 11.9 µM)	32 (≈ 95 µM)	32 (≈ 95 µM)	64 (≈ 190 µM)	32 (≈ 95 µM)	–
CC(=O)OC(C(Oc1ccc(Br)cc1)n1ccnc1)C(C)(C)C (stereo not shown) [drawing 9]	4 (≈ 10.5 µM)	64 (≈ 168 µM)	32 (≈ 83.9 µM)	64 (≈ 168 µM)	32 (≈ 83.9 µM)	–
CC(=O)OC(C(Oc1ccc(I)cc1)n1ccnc1)C(C)(C)C (stereo not shown) [drawing 10]	4 (≈ 9.34 µM)	32 (≈ 74.7 µM)	64 (≈ 149 µM)	64 (≈ 149 µM)	32 (≈ 74.7 µM)	–
CC(=O)OC(C(Oc1ccc(-c2ccc(Cl)cc2)cc1)n1ccnc1)C(C)(C)C (stereo not shown) [drawing 11]	< 1	32 (≈ 77.5 µM)	64 (≈ 155 µM)	64 (≈ 155 µM)	32 (≈ 77.5 µM)	–
CC(C)(C)C(O)C(Oc1cccc(Cl)c1)n1ccnc1 (stereo not shown) [drawing 13]	–	–	–	–	–	+ (trace action = < 40% survivors on 6th day after infection)
CC(=O)OC(C(Oc1ccc(Cl)cc1)n1ccnc1)C(C)(C)C (stereo not shown) [drawing 15]	–	–	–	–	–	++++ (good action = ≥ 80% survivors on the 6th day after infectio)
CC(=O)OC(C(Oc1ccc(Br)cc1)n1ccnc1)C(C)(C)C (stereo not shown) [drawing 16]	–	–	–	–	–	++ (weak action = ≥ 40% survivors on the 6th day after infection)
CC(=O)OC(C(Oc1ccc(-c2ccc(Cl)cc2)cc1)n1ccnc1)C(C)(C)C (stereo not shown) [drawing 18]	–	–	–	–	–	++++ (good action = ≥ 80% survivors on the 6th day after infectio)
CC(=O)OC(C(Oc1ccc(I)cc1)n1ccnc1)C(C)(C)C (stereo not shown) [drawing 20]	–	–	–	–	–	+ (trace action = < 40% survivors on 6th day after infection)
